Structures are written as SMILES.

In this assay the test system is VR1 receptor (293 cells expressing capsaicin-insensitive VR1 receptor variants). Briefly: High throughput screening of VR1 antagonists using a calcium imaging assay (Fura2, pH 5.1 stimulus).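 Also: Fura2 ratiometric fluorescence read every 4 s over 3 min, response taken as peak ratio minus baseline before pre-treatment, compound pre-treatment preceding acid challenge.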 The following applies: 1 uM compound; inhibition of calcium ion influx.
Source text: A dual wavelength ratiometric dye, Fura2, was used as an indicator of relative levels of calcium ions in a 96 well format using a bench top scanning fluorometer with integrated fluidics and temperature control (Flex Station, Molecular Devices).
A dual wavelength ratiometric dye, Fura2, was used as an indicator of relative levels of [Ca2+] in a 96 well format using a bench top scanning fluorometer with integrated fluidics and temperature control (Flex Station, Molecular Devices).
293 cells were grown on PDL coated 96-well black-walled plates, in the presence of a DMEM medium containing 5% Penstrep, 5% Glutamax, 200 ug/mL Hygromycin, 5 μg/mL Blasticide and 10% heat inactivated FBS. Prior to assay, the cells were loaded with 5 μg/mL Fura2 in normal saline solution at 37° C. for 40 minutes. Cells were then washed with normal saline to remove the dye.
The assay consists of two stages; a pre-treatment phase followed by a treatment phase.
50 μl of a compound solution was added to the cells (Pre-treatment). Immediately following, 50 μl of the test compound in a saline solution at pH 5.1 was added. […] Changes in wavelength measurements were made throughout the course of the experiment in 4 second intervals over a period of 3 minutes. Responses were measured as peak fluorescence ratio after test compound addition minus baseline fluorescence ratio prior to pre-treatment and were calculated using SoftMaxPro softwareData were expressed as percentage inhibition calculated using Excel as follows:
`CCN(CC)c1ccc(NC(=O)c2ccc(-c3ncccc3Cl)cc2)cc1` [Compound 1061]: the “% Inhibition @ 1 uM” value is “++++ (compound exhibited 75% or greater inhibition of calcium ion influx induced by capsaicin stimulation)”.

With `O=C(Nc1ccc(N2CCOCC2)cc1)c1ccc(-c2ncccc2Cl)cc1` [Compound 1062], the “% Inhibition @ 1 uM” value is reported as “+ (compound exhibited 0-25% inhibition of calcium ion influx induced by capsaicin stimulation)”.

For `Cc1cccnc1NC(=O)c1ccc(-c2ncccc2Cl)cc1` [Compound 1065], the “% Inhibition @ 1 uM” value was “++ (compound exhibited 25-50% inhibition of calcium ion influx induced by capsaicin stimulation)”.

As for `O=C(Nc1ccc(Br)cn1)c1ccc(-c2ncccc2Cl)cc1` [Compound 1066], the “% Inhibition @ 1 uM” value is given as “++ (compound exhibited 25-50% inhibition of calcium ion influx induced by capsaicin stimulation)”. As for `O=C(Nc1ccc(C(F)(F)F)cn1)c1ccc(-c2ncccc2Cl)cc1` [Compound 1067], the entry is “++ (compound exhibited 25-50% inhibition of calcium ion influx induced by capsaicin stimulation)”. As for `CCC(C)(C)NC(=O)c1ccc(-c2ncccc2Cl)cc1` [Compound 1070], the entry is “+ (compound exhibited 0-25% inhibition of calcium ion influx induced by capsaicin stimulation)”; as for `O=C(Nc1ccc2ncccc2c1)c1ccc(-c2ncccc2Cl)cc1` [Compound 1071], “+ (compound exhibited 0-25% inhibition of calcium ion influx induced by capsaicin stimulation)”; as for `CCC1c2ccccc2-c2cc(NC(=O)c3ccc(-c4ncccc4Cl)cc3)ccc21` (centres unmarked) [Compound 1072], “++ (compound exhibited 25-50% inhibition of calcium ion influx induced by capsaicin stimulation)”. In the case of `O=C(Nc1ccc([N+](=O)[O-])cc1)c1ccc(-c2ncccc2Cl)cc1` [Compound 1073], the “% Inhibition @ 1 uM” value is “++++ (compound exhibited 75% or greater inhibition of calcium ion influx induced by capsaicin stimulation)”. With `O=C(Nc1ccc2ccccc2c1)c1ccc(-c2ncccc2Cl)cc1` [Compound 1074], the “% Inhibition @ 1 uM” value is reported as “++++ (compound exhibited 75% or greater inhibition of calcium ion influx induced by capsaicin stimulation)”. With `O=C(Nc1ccncc1)c1ccc(-c2ncccc2Cl)cc1F` [Compound 1079], the “% Inhibition @ 1 uM” value is listed as “+ (compound exhibited 0-25% inhibition of calcium ion influx induced by capsaicin stimulation)”. Consider `O=C(Nc1cccnc1)c1ccc(-c2ncccc2Cl)cc1F` [Compound 1080], for which the “% Inhibition @ 1 uM” value was “+ (compound exhibited 0-25% inhibition of calcium ion influx induced by capsaicin stimulation)”. Take `CC(C)(NC(=O)c1ccc(-c2ncccc2Cl)cc1F)c1ccccc1` [Compound 1083]: the “% Inhibition @ 1 uM” value is listed as “+ (compound exhibited 0-25% inhibition of calcium ion influx induced by capsaicin stimulation)”. Take `O=C(Nc1ccccc1O)c1ccc(-c2ncccc2Cl)cc1F` [Compound 1084]: the “% Inhibition @ 1 uM” value is “+ (compound exhibited 0-25% inhibition of calcium ion influx induced by capsaicin stimulation)”. Consider `CN(C)c1cccc(NC(=O)c2ccc(-c3ncccc3Cl)cc2F)c1` [Compound 1086], for which the “% Inhibition @ 1 uM” value is given as “+ (compound exhibited 0-25% inhibition of calcium ion influx induced by capsaicin stimulation)”. For the compound `O=C(Nc1cccc(Cl)c1)c1ccc(-c2ncccc2Cl)cc1F` [Compound 1088], the “% Inhibition @ 1 uM” value is reported as “+ (compound exhibited 0-25% inhibition of calcium ion influx induced by capsaicin stimulation)”. `COc1cccc(NC(=O)c2ccc(-c3ncccc3Cl)cc2F)c1` [Compound 1091]: the “% Inhibition @ 1 uM” value is recorded as “+ (compound exhibited 0-25% inhibition of calcium ion influx induced by capsaicin stimulation)”. For `COc1ccc(NC(=O)c2ccc(-c3ncccc3Cl)cc2F)cc1Cl` [Compound 1096], the “% Inhibition @ 1 uM” value is given as “++ (compound exhibited 25-50% inhibition of calcium ion influx induced by capsaicin stimulation)”. In the case of `O=C(Nc1cccc(Br)c1)c1ccc(-c2ncccc2Cl)cc1F` [Compound 1100] it was “++++ (compound exhibited 75% or greater inhibition of calcium ion influx induced by capsaicin stimulation)”. In the case of `N#Cc1cccc(NC(=O)c2ccc(-c3ncccc3Cl)cc2F)c1` [Compound 1101] it was “++++ (compound exhibited 75% or greater inhibition of calcium ion influx induced by capsaicin stimulation)”; in that of `CC(C)(C)c1ccc(NC(=O)c2ccc(-c3ncccc3Cl)cc2F)cc1` [Compound 1103], “+ (compound exhibited 0-25% inhibition of calcium ion influx induced by capsaicin stimulation)”; in that of `Cc1cccnc1NC(=O)c1ccc(-c2ncccc2Cl)cc1F` [Compound 1112], “+ (compound exhibited 0-25% inhibition of calcium ion influx induced by capsaicin stimulation)”.

With `O=C(Nc1ccc(C(F)(F)F)cn1)c1ccc(-c2ncccc2Cl)cc1F` [Compound 1114], the “% Inhibition @ 1 uM” value is recorded as “+ (compound exhibited 0-25% inhibition of calcium ion influx induced by capsaicin stimulation)”. For `O=C(Nc1ncc(C(F)(F)F)cc1Cl)c1ccc(-c2ncccc2Cl)cc1F` [Compound 1115], the “% Inhibition @ 1 uM” value is given as “+ (compound exhibited 0-25% inhibition of calcium ion influx induced by capsaicin stimulation)”.

In the case of `O=C(Nc1cccnc1Cl)c1ccc(-c2ncccc2Cl)cc1F` [Compound 1118], the “% Inhibition @ 1 uM” value was “+ (compound exhibited 0-25% inhibition of calcium ion influx induced by capsaicin stimulation)”. As for `COc1ccc(NC(=O)c2ccc(-c3ncccc3Cl)cc2F)cn1` [Compound 1120], the “% Inhibition @ 1 uM” value was “+ (compound exhibited 0-25% inhibition of calcium ion influx induced by capsaicin stimulation)”.

As to `Cc1cc(NC(=O)c2ccc(-c3ncccc3Cl)cc2F)nc(C)n1` [Compound 1123], the “% Inhibition @ 1 uM” value is “+++ (compound exhibited 50-75% inhibition of calcium ion influx induced by capsaicin stimulation)”. As for `O=C(Nc1ccc2ncccc2c1)c1ccc(-c2ncccc2Cl)cc1F` [Compound 1124], the entry is “++ (compound exhibited 25-50% inhibition of calcium ion influx induced by capsaicin stimulation)”.

`O=C(Nc1ccc2ccccc2c1)c1ccc(-c2ncccc2Cl)cc1F` [Compound 1126]: the “% Inhibition @ 1 uM” value is “++ (compound exhibited 25-50% inhibition of calcium ion influx induced by capsaicin stimulation)”. In the case of `CC(C)(C)NC(=O)c1ccc(-c2ncccc2Cl)c(F)c1` [Compound 1127] it was “+ (compound exhibited 0-25% inhibition of calcium ion influx induced by capsaicin stimulation)”; in that of `O=C(Nc1ccc(F)cc1)c1ccc(-c2ncccc2Cl)c(F)c1` [Compound 1131], “+ (compound exhibited 0-25% inhibition of calcium ion influx induced by capsaicin stimulation)”; in that of `O=C(Nc1cccc(Cl)c1)c1ccc(-c2ncccc2Cl)c(F)c1` [Compound 1133], “+ (compound exhibited 0-25% inhibition of calcium ion influx induced by capsaicin stimulation)”. For the compound `CCCc1ccccc1NC(=O)c1ccc(-c2ncccc2Cl)c(F)c1` [Compound 1135], the “% Inhibition @ 1 uM” value is reported as “+ (compound exhibited 0-25% inhibition of calcium ion influx induced by capsaicin stimulation)”. As for `COc1cccc(NC(=O)c2ccc(-c3ncccc3Cl)c(F)c2)c1` [Compound 1136], the “% Inhibition @ 1 uM” value is “+ (compound exhibited 0-25% inhibition of calcium ion influx induced by capsaicin stimulation)”.

As for `O=C(Nc1cccc(Cl)c1Cl)c1ccc(-c2ncccc2Cl)c(F)c1` [Compound 1139], the “% Inhibition @ 1 uM” value is on record as “++++ (compound exhibited 75% or greater inhibition of calcium ion influx induced by capsaicin stimulation)”.
